Experimental data reported in the supplement of paper PMC10307832.

How the values were obtained:
Assay in all cases: relative viability (nuclei count vs DMSO), 5 days (fraction); higher = more cells survive
201T = system: 201T
Procedure, shortened: (§1)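 One day after seeding in 1536-well plates, lung cancer cell lines were dosed by pin tool. Dosing was either single-drug or a fixed anchor-drug dose plus five library-drug doses (not always all listed) in √10 steps. After 5 days, nuclei were stained in one fix-and-stain step and counted on 4× images, and relative viability is the nuclei count of treated wells over that of vehicle wells, given as the median of duplicate plates.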

BEN = system: BEN
Procedure, shortened: as §1

EMC-BAC-2 = system: EMC-BAC-2
Procedure, shortened: as §1

HARA = system: HARA
Procedure, shortened: as §1

HCC-44 = system: HCC-44
Procedure, shortened: as §1

LCLC-103H = system: LCLC-103H
Procedure, shortened: as §1

LOU-NH91 = system: LOU-NH91
Procedure, shortened: as §1

NCI-H1666 = system: NCI-H1666
Procedure, shortened: as §1

NCI-H1993 = system: NCI-H1993
Procedure, shortened: as §1

NCI-H2009 = system: NCI-H2009
Procedure, shortened: as §1

NCI-H2023 = system: NCI-H2023
Procedure, shortened: as §1

NCI-H2087 = system: NCI-H2087
Procedure, shortened: as §1

NCI-H2126 = system: NCI-H2126
Procedure, shortened: as §1

NCI-H2347 = system: NCI-H2347
Procedure, shortened: as §1

NCI-H23 = system: NCI-H23
Procedure, shortened: as §1

NCI-H3122 = system: NCI-H3122
Procedure, shortened: as §1

NCI-H441 = system: NCI-H441
Procedure, shortened: as §1

NCI-H596 = system: NCI-H596
Procedure, shortened: as §1

NCI-H647 = system: NCI-H647
Procedure, shortened: as §1

NCI-H650 = system: NCI-H650
Procedure, shortened: as §1

NCI-H727 = system: NCI-H727
Procedure, shortened: as §1

NCI-H838 = system: NCI-H838
Procedure, shortened: as §1

NC(=O)Nc1cc(-c2cccc(F)c2)sc1C(=O)N[C@H]1CCCNC1 [AZD7762] + C[C@@H](Oc1cc(-c2cnn(C3CCNCC3)c2)cnc1N)c1c(Cl)ccc(F)c1Cl [Crizotinib] (partner 1 µM) gave a relative viability (201T; first compound 0.01 µM) of 0.969, a relative viability (201T; first compound 0.03162 µM) of 1.02 and a relative viability (201T; first compound 0.1 µM) of 1.03. The relative viability (201T; first compound 0.3162 µM) was 1.04, the relative viability (201T; first compound 1 µM) was 1.16 and the relative viability (BEN; first compound 0.01 µM) was 0.911. For the same molecule, the relative viability (BEN; first compound 0.03162 µM) was 0.924, the relative viability (BEN; first compound 0.1 µM) was 0.827 and the relative viability (BEN; first compound 0.3162 µM) was 0.859. It also gave a relative viability (BEN; first compound 1 µM) of 0.616, a relative viability (EMC-BAC-2; first compound 0.01 µM) of 0.852 and a relative viability (EMC-BAC-2; first compound 0.03162 µM) of 0.718. The relative viability (EMC-BAC-2; first compound 0.1 µM) was 0.777, the relative viability (EMC-BAC-2; first compound 0.3162 µM) was 0.797 and the relative viability (EMC-BAC-2; first compound 1 µM) was 0.706. It also gave a relative viability (HARA; first compound 0.01 µM) of 1.11, a relative viability (HARA; first compound 0.03162 µM) of 0.98 and a relative viability (HARA; first compound 0.1 µM) of 0.894. The relative viability (HARA; first compound 0.3162 µM) was 1.01, the relative viability (HARA; first compound 1 µM) was 0.25 and the relative viability (HCC-44; first compound 0.01 µM) was 0.892. It also gave a relative viability (HCC-44; first compound 0.03162 µM) of 0.808, a relative viability (HCC-44; first compound 0.1 µM) of 0.854 and a relative viability (HCC-44; first compound 0.3162 µM) of 0.787. It also gave a relative viability (HCC-44; first compound 1 µM) of 0.745, a relative viability (LCLC-103H; first compound 0.01 µM) of 1.15 and a relative viability (LCLC-103H; first compound 0.03162 µM) of 0.994. The relative viability (LCLC-103H; first compound 0.1 µM) was 1.08, the relative viability (LCLC-103H; first compound 0.3162 µM) was 1.01 and the relative viability (LCLC-103H; first compound 1 µM) was 1.04. For the same molecule, the relative viability (LOU-NH91; first compound 0.01 µM) was 0.764, the relative viability (LOU-NH91; first compound 0.03162 µM) was 0.731 and the relative viability (LOU-NH91; first compound 0.1 µM) was 0.746. The relative viability (LOU-NH91; first compound 0.3162 µM) was 0.76, the relative viability (LOU-NH91; first compound 1 µM) was 0.546 and the relative viability (NCI-H1666; first compound 0.01 µM) was 1.58. The relative viability (NCI-H1666; first compound 0.03162 µM) was 1.16, the relative viability (NCI-H1666; first compound 0.1 µM) was 1.23 and the relative viability (NCI-H1666; first compound 0.3162 µM) was 0.993. For the same molecule, the relative viability (NCI-H1666; first compound 1 µM) was 0.695, the relative viability (NCI-H1993; first compound 0.01 µM) was 0.952 and the relative viability (NCI-H1993; first compound 0.03162 µM) was 0.957. It also gave a relative viability (NCI-H1993; first compound 0.1 µM) of 0.729, a relative viability (NCI-H1993; first compound 0.3162 µM) of 0.873 and a relative viability (NCI-H1993; first compound 1 µM) of 0.808. It also gave a relative viability (NCI-H2009; first compound 0.01 µM) of 1.04, a relative viability (NCI-H2009; first compound 0.03162 µM) of 1.13 and a relative viability (NCI-H2009; first compound 0.1 µM) of 1.07. For the same molecule, the relative viability (NCI-H2009; first compound 0.3162 µM) was 0.954, the relative viability (NCI-H2009; first compound 1 µM) was 0.38 and the relative viability (NCI-H2023; first compound 0.01 µM) was 0.573. It also gave a relative viability (NCI-H2023; first compound 0.03162 µM) of 0.612, a relative viability (NCI-H2023; first compound 0.1 µM) of 0.417 and a relative viability (NCI-H2023; first compound 0.3162 µM) of 0.209. It also gave a relative viability (NCI-H2023; first compound 1 µM) of 0.118, a relative viability (NCI-H2087; first compound 0.01 µM) of 0.906 and a relative viability (NCI-H2087; first compound 0.03162 µM) of 0.879. The relative viability (NCI-H2087; first compound 0.1 µM) was 1.02, the relative viability (NCI-H2087; first compound 0.3162 µM) was 0.825 and the relative viability (NCI-H2087; first compound 1 µM) was 0.846. For the same molecule, the relative viability (NCI-H2126; first compound 0.01 µM) was 1.01, the relative viability (NCI-H2126; first compound 0.03162 µM) was 1.01 and the relative viability (NCI-H2126; first compound 0.1 µM) was 1.12. It also gave a relative viability (NCI-H2126; first compound 0.3162 µM) of 1.04, a relative viability (NCI-H2126; first compound 1 µM) of 1.05 and a relative viability (NCI-H2347; first compound 0.01 µM) of 1.01. It also gave a relative viability (NCI-H2347; first compound 0.03162 µM) of 0.918, a relative viability (NCI-H2347; first compound 0.1 µM) of 0.734 and a relative viability (NCI-H2347; first compound 0.3162 µM) of 0.928. The relative viability (NCI-H2347; first compound 1 µM) was 0.67, the relative viability (NCI-H23; first compound 0.01 µM) was 0.687 and the relative viability (NCI-H23; first compound 0.03162 µM) was 0.517. For the same molecule, the relative viability (NCI-H23; first compound 0.1 µM) was 0.542, the relative viability (NCI-H23; first compound 0.3162 µM) was 0.323 and the relative viability (NCI-H23; first compound 1 µM) was 0.203. For the same molecule, the relative viability (NCI-H3122; first compound 0.01 µM) was 0.266, the relative viability (NCI-H3122; first compound 0.03162 µM) was 0.296 and the relative viability (NCI-H3122; first compound 0.1 µM) was 0.329. For the same molecule, the relative viability (NCI-H3122; first compound 0.3162 µM) was 0.258, the relative viability (NCI-H3122; first compound 1 µM) was 0.283 and the relative viability (NCI-H441; first compound 0.01 µM) was 1.15. For the same molecule, the relative viability (NCI-H441; first compound 0.03162 µM) was 0.745, the relative viability (NCI-H441; first compound 0.1 µM) was 1.15 and the relative viability (NCI-H441; first compound 0.3162 µM) was 0.995. The relative viability (NCI-H441; first compound 1 µM) was 0.89, the relative viability (NCI-H596; first compound 0.01 µM) was 0.991 and the relative viability (NCI-H596; first compound 0.03162 µM) was 0.942. It also gave a relative viability (NCI-H596; first compound 0.1 µM) of 1.02, a relative viability (NCI-H596; first compound 0.3162 µM) of 1.11 and a relative viability (NCI-H596; first compound 1 µM) of 0.863. The relative viability (NCI-H647; first compound 0.01 µM) was 1.15, the relative viability (NCI-H647; first compound 0.03162 µM) was 1.11 and the relative viability (NCI-H647; first compound 0.1 µM) was 0.941. For the same molecule, the relative viability (NCI-H647; first compound 0.3162 µM) was 0.546, the relative viability (NCI-H647; first compound 1 µM) was 0.105 and the relative viability (NCI-H650; first compound 0.01 µM) was 0.882. The relative viability (NCI-H650; first compound 0.03162 µM) was 0.594, the relative viability (NCI-H650; first compound 0.1 µM) was 0.714 and the relative viability (NCI-H650; first compound 0.3162 µM) was 0.688. For the same molecule, the relative viability (NCI-H650; first compound 1 µM) was 0.466, the relative viability (NCI-H727; first compound 0.01 µM) was 0.984 and the relative viability (NCI-H727; first compound 0.03162 µM) was 0.865. It also gave a relative viability (NCI-H727; first compound 0.1 µM) of 0.758, a relative viability (NCI-H727; first compound 0.3162 µM) of 0.519 and a relative viability (NCI-H727; first compound 1 µM) of 0.259. For the same molecule, the relative viability (NCI-H838; first compound 0.01 µM) was 0.809, the relative viability (NCI-H838; first compound 0.03162 µM) was 0.781 and the relative viability (NCI-H838; first compound 0.1 µM) was 0.762. For the same molecule, the relative viability (NCI-H838; first compound 0.3162 µM) was 0.687 and the relative viability (NCI-H838; first compound 1 µM) was 0.301.
